These results are taken from patent publication US9958461B2, “Detection of protein to protein interactions” (THE GOVERNING COUNCIL OF THE UNIVERSITY OF TORONTO, priority 2013, dated 2018).

The target in one test is T1, ErbB4/Shc1 interaction (Homo sapiens, UniProt Q15303).
T1 construct: with the advantage of testing full-length integral membrane proteins; (GGGGS)2 linker-Cub (human ubiquitin aa 35-76)-transcription factor (GAL4-mNFkB or mLexA-VP16; expressed in transfected cells; HEK293T reporter lines are used throughout)
T1 sequence (Q15303 26-1308): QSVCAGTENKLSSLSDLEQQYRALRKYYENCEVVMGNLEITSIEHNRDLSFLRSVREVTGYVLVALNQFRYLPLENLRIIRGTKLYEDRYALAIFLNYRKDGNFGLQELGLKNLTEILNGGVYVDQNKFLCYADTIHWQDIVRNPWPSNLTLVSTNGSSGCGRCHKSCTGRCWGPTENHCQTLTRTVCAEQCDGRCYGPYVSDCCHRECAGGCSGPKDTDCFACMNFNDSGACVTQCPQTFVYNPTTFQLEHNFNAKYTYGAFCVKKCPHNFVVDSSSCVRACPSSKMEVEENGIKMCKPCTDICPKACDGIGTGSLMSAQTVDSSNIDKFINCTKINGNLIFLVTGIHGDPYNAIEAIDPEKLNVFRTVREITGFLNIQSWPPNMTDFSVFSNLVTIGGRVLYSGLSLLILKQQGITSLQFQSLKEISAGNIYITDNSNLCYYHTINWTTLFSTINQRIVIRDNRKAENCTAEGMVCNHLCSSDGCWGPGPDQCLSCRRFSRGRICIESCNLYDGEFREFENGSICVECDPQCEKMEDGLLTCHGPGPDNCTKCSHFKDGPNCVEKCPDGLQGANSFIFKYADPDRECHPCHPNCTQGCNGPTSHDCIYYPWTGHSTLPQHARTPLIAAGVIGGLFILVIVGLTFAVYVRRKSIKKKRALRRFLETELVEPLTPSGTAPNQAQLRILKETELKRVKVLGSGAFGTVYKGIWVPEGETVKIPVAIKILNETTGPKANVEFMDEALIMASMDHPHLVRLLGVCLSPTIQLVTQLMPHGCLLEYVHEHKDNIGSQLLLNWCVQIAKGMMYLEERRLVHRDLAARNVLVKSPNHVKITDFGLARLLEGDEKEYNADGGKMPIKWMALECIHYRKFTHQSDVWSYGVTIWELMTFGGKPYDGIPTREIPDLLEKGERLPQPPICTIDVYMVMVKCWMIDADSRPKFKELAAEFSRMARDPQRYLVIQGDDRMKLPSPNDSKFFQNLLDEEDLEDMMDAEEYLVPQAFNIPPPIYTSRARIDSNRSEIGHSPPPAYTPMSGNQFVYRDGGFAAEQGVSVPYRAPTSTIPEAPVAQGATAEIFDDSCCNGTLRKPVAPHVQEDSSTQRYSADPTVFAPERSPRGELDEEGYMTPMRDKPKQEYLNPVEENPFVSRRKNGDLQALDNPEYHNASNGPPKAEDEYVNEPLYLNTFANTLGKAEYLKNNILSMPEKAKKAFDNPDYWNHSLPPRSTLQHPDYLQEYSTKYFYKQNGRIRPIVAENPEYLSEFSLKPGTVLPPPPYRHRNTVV
The experiment in a line: MaMTH luciferase reporter assay, ErbB4 bait / Shc1 prey with TKI-PD158780. Type of test: cell-based. The settings on record: presence/absence of TKI-PD158780. How it is done: FIG. 7: (a) Graph illustrating relative lucifease activity of serum stimulated PPIs. Stable 5×GAL4UAS-luciferase reporter cell lines were co-transfected with ErbB2 bait and preys. Luciferase activity was measured 24 h following transfection in the absence/presence of serum. […] The plotted values represent relative-luciferase signals calculated as fold-change increase above averaged negative controls. (b) Graph illustrating relative luciferase activity of drug-inhibited protein-protein interactions. Following transfection, ErbB4 interaction with either Shc1 or non-interacting Pex13 was measured in presence/absence of non-specfic TKI-PD158780. Plotted values represent relative luciferase signals calculated as fold-change increase above bait only controls.
We then sought to more specifically focus on the ErbB subfamily of receptor tyrosine kinases (RTK) to investigate ligand-dependent and drug-inhibited interactions. The ErbB family consists of 4 closely related receptors: EGFR, ErbB2, ErbB3, and ErbB4. Elucidation of cell signaling via all four ErbB receptors is of great therapeutic interest since they are frequently found mutated or overexpressed in several cancer. […]
(In general: A reporter such as luciferase makes a cellular process visible.)

A further test relates to EGFR-ex19del. Briefly: Western blot of EGFR-ex19del bait phosphorylation after erlotinib (anti-phospho-EGFR). The settings on record: 0, 250 or 500 nM Erlotinib, 20 h, serum-containing media. A general note: Immunoblotting shows a protein as a band on a membrane.

Excerpt for EGFR-ex19del: (a) Left panel: Relative luciferase activity of stable 5×GAL4UAS-HEK293T luciferase reporter cells co-transfected with various oncogenic ErbB baits and Shc1 prey. […] (b) Luciferase activity of sable 5×GAL4UAS-HEK293T luciferase reporter cells co-transfected with EGFR-Wt, EGFR-L858R or EGFR-D855A-kinase dead baits and Shc1 adaptor prey. (c)-(d) Western Blot showing expression of various receptors using anti-V5 antibodies and phosphor-tyrosine-specific antibodies. […] (h) Western Blot analysis of EGFR-Wt, EGFR-L858R, EGFR-exon19de and EGFR-L858R/T790A baits transfected into stable5×GAL4UAS-luciferase HEK293T reporter cells in serum-containing media.
Western blot analysis was performed using standard protocols. Briefly, cells were either directly harvested in 2×sample buffer or harvested in 1×reporter lysis buffer (Promega) containing protease inhibitors (Complete-EDTA, Roche) and 2×sample buffer was added after freezing the cells at −80° C. For phospho-specific antibodies, cells were lysed in Ripa buffer containing Na-orthovanadate, PMSF and protease inhibitor and 2×SB was added and samples were immediately boiled at 95° C. for 5 min and proceeded for Western Blot analysis. […] Transferred samples were immunoblotted with primary antibodies, followed by incubation with HRP-coupled secondary antibodies, and detection was performed using GE-Healthcare enhanced luminescence. […]

`CNc1cc2c(Nc3cccc(Br)c3)ncnc2cn1` [TKI-PD158780]: the “Effect on Shc1-adaptor protein binding to ErbB4” value at ErbB4/Shc1 interaction was “reduced Shc1-adaptor protein binding”. As for `C#Cc1cccc(Nc2ncnc3cc(OCCOC)c(OCCOC)cc23)c1` [Erlotinib], in the test with EGFR-ex19del, the “Receptor phosphorylation upon Erlotinib treatment (Western blot)” value is recorded as “sensitive to Erlotinib”.
